For one series, the system named is vitiligo patches. In words: Topical treatment of vitiligo patches refractory to topical anti-inflammatory therapies (single subject). In kind it is in vivo, human. The settings on record: for change in the size of the white areas: mometasone fumarate 0.1% cream BID (abdominal macule), clobetasol 0.05% cream OD (two patches right hand), 12 months. The method, then:
Topical maresin 1 was tested on a person with a 5 year and 3 month history of developing two white patches on the dorsal right hand and one white macule on the right mid abdomen. […] There were no signs of inflammation such as redness, or presence of scales. There were no symptoms such as itchiness or pain. […] On examination, the subject appeared to be well. Complete skin examination was performed. The entire skin appeared to be normal aside from three lesions of depigmentation: (1) a 1.5×1.2 cm white patch on the mid right abdomen; (2) a 1.3×1.0 cm white patch on the dorsum of right third metacarpal head; and (3) a 1.0×0.8 cm sized white macule on the dorsum of right 4th metacarpal head.

The subject of series [1] is primary human epidermal melanocytes. In words: Melanocyte survival assay in vitro (growth factor supplement withdrawn), CellTiter-Blue viability. The class given is cell-based. The settings on record: for ability to protect melanocytes: physiological distress. As for the experimental part: Human neonatal epidermal melanocytes (HEMn-DP) were purchased from ThermoFisher Scientific™ (C-202-5C). Melanocytes were cultured in full growth medium (Medium 254 supplemented with Human Melanocyte Growth Supplement, both purchased from ThermoFisher Scientific™. Cells were expanded and passaged 3 times before conducting the assay. 4×10^3 melanocytes per well were seeded into 96 well plate and allowed to recover for 4 hours before the treatment was added for each condition in 100 μl final volume. Cells were treated and kept in 37° C., 5% CO2 for 3 days. Viability assay was conducted using CellTiter-Blue Cell Viability Assay Kit™ (Promega™, G8080) and signal was measured using GlowMax™ plate reader (Promega™) after 4 hours at 37° C., 5% CO2. Merasin 1 (Cayman™) was diluted into 1 μg/ml using PBS and added to the culture medium at concentrations ranging from 0 to 1 μg/ml. For survival assays, the procedure was essentially the same as proliferation assay except that melanocytes were kept in M254 medium without human melanocyte growth supplement. The assays were conducted in triplicates.

The test system of series [2] is skin resident M2 macrophages. Nature of the series: Skin resident M1 (CD80+) / M2 (CD163+) macrophages by flow cytometry in B6 mice with or without maresin 1. The class given is in vivo, C57BL/J6 mice. As for the experimental part:
For isolation of macrophages from murine skin: 1 cm×1 cm sized skin samples were cut into small pieces, placed in a solution of PBS containing 1 mg/ml dispase (Roche™) and incubated for 1 hour at 37° C. The samples were then transferred into RPMI containing 1 mg/ml Collagenase IV and 0.1 mg/ml DNAse (Sigma Aldrich™) and incubated for 90 minutes at 37° C. Single cell suspension was prepared by passing through 100 μm strainer. Cells were washed and stained in PBS without Ca^2+ and Mg^2+ supplemented with 1% heat-inactivated FCS. Cell surface staining panel included anti-mouse CD163-BV421™, CD80-Alexa fluor 647™, and CD11b-Percp Cy5.5™ (Biolegend™) for 30 minutes at 4° C. Cells were washed with PBS and analyzed with LSRII™ cell sorter (BD Biosciences™).
Eight week old female C57BL/J6 mice were ordered from The Jackson Laboratory™, and fed a standard diet of Animal Care Facility of Vancouver Coastal Health Research institute (4 mice/cage). For induction of vitiligo, mice were immunized by intradermal injections (ID, starting at Day 0) at the left hock, and repeated at 2-week, using the method described by S. You et al. that efficiently induces melanocyte specific CD8+ T cell responses^(53). […] Immunization response score was recorded at 48 hours after the first immunization by evaluating the redness and swelling (0=none, 1=mild, 2=moderate, 3=severe). […]
Background: In flow cytometry, cells or beads pass a laser one at a time.

For the next series, the system named is B6 mouse Vitiligo model. In words: B6 mouse model of vitiligo with TRP2 immunization. In kind it is in vivo, C57BL/J6 mice. An excerpt: ([…], Deming Regression). * p<0.05 (two tailed t test).
Eight week old female C57BL/J6 mice were ordered from The Jackson Laboratory™, and fed a standard diet of Animal Care Facility of Vancouver Coastal Health Research institute (4 mice/cage). For induction of vitiligo, mice were immunized by intradermal injections (ID, starting at Day 0) at the left hock, and repeated at 2-week, using the method described by S. You et al. that efficiently induces melanocyte specific CD8+ T cell responses^(53). The immunogen consisted of TRP2-180 (50 μg) peptide mixed with LPS (5 μg) and CpG ODN 1826 (5 μg) in 50 μL of PBS solution per mouse per injection. Immunization response score was recorded at 48 hours after the first immunization by evaluating the redness and swelling (0=none, 1=mild, 2=moderate, 3=severe). For assessing macrophage M1 and M2 populations, the TRP-immunized and non-immunized mice were anaesthetized 48 hours after immunization for skin sampling at the immunization site and used for cell isolation as described above.
For assessing the effects of maresin 1 treatment, C57BL/J6 mice were randomly assigned to the sham injection control group (200 μl saline IP, n=20) and the Maresin 1 injection group (800 ng in 200 μl saline IP, n=20). […] Mice were monitored 5 times per week and evaluated using a Depigmentation Area Scoring Template (0-5) (FIG. 5C). […]

The next series deals with B6 mouse canities model. In words: B6 mouse model of canities (spontaneous hair greying) and aging-associated weight gain. The class given is in vivo, C57BL/J6 mice. The settings on record: 800 ng maresin 1 IP three times a week. The text has this: To observe aging-associated spontaneous hair greying (canities), C57BL/J6 mice aged 8 weeks were purchased from JAX Labs™ and kept in standard conditions for 8 weeks. The fur color as well as overall appearance and behaviors were monitored daily by visual inspection and by photography. By 6-8 weeks, about 20-40% of the mice would develop spontaneous canities. At the end of observation, central venous blood was collected and used for ELISA analysis using maresin 1 ELISA kit (Caymen Chemicals™) following the manufacturers' recommended protocol with purified maresin 1 serving as the chemical standard.
C57BL/J6 mice from The Jackson Laboratory™, 8 weeks of age were divided into two groups that received intraperitoneal injections of maresin 1 (800 ng in 100 μl saline) or saline alone three times a week for 6 weeks. […] At the end of the experiment, the mice were photographed and weighed.

The mark [3] stands for this setting: cultured human epidermal melanocytes.

The source of these data is US12274686B2, “Specialized pro-resolving mediators (SPMs) as melanocyte growth promoter and pro-survival factors and uses thereof” (THE UNIVERSITY OF BRITISH COLUMBIA, priority 2021, dated 2025).

Turning to `C[C@H]1C[C@H]2[C@@H]3CCC4=CC(=O)C=C[C@]4(C)[C@@]3(F)[C@@H](O)C[C@]2(C)[C@@]1(O)C(=O)CCl` [clobetasol, reference compound], the “change in the size of the white areas” value in the series on vitiligo patches is “did not notice any change”.

As to `CCCCC[C@H](O)/C=C/C=C\C=C\C=C\[C@@H](O)[C@@H](O)CCCC(=O)O` [lipoxin A4, reference compound], in series [1] (SPMs 0 to 300 ng/ml, cultured human epidermal melanocytes), the “pro-survival effects on the melanocytes in vitro” value is “significantly decreased melanocyte survival”. Besides, the “ability to protect melanocytes” value in series [1] (setting [3]) is “accelerated melanocyte depletion”.

In the case of `CCCCC[C@@H](O)[C@H](O)/C=C/C=C/C=C\C=C\[C@@H](O)CCCC(=O)O` [lipoxin B4, 5S,14R,15S-trihydroxy-6E,8Z,10E,12E-eicosatetraenoic acid], the “ability to protect melanocytes” value in series [1] (setting [3]) is “show ability to protect melanocytes”.

`CC/C=C\C/C=C\C[C@H](O)\C=C/C=C/C=C/[C@H](O)C/C=C\CCC(=O)O` [maresin 1, 7R, 14S-dihydroxy-4Z, 8E, 10E, 12Z, 16Z, 19Z-docosahexaenoic acid]: the “ability to protect melanocytes” value in series [1] (setting [3]) is given as “show ability to protect melanocytes”. Besides, in series [1] (maresin 1 10 to 300 ng/ml, three days, p<0.01), the “melanocyte depletion (surviving melanocytes) after growth factor supplement withdrawal” value is reported as “significant reduction of melanocyte depletion”. Moreover, in series [1] (three days in culture, no growth factor supplement), the “melanocyte depletion caused by growth factor withdrawal” value is listed as “markedly reducing melanocyte depletion”. The “post-immunization M2/M1 ratio at the TRP2 immunization site” value in series [2] (maresin 1 800 ng/mouse IP pretreatment, skin 48 hours after TRP2 immunization, CD163+/CD80+ cells) was “restoring the post-immunization M2/M1 ratio to a level above the pre-immunization state”. The “M2/M1 ratio in the skin of B6 mice” value in series [2] (maresin 1 treatment, increase from 0.44) came to 5.34. The “vitiligo development (average depigmentation score at immunization site)” value in the series with B6 mouse Vitiligo model (maresin 1 800 ng/mouse IP three times per week for 8 weeks vs saline (sham)) was “significant reduction of vitiligo development”. Further, the “immunization response (peak score, erythema + edema)” value with B6 mouse Vitiligo model (maresin 1 800 ng/mouse IP, 48 hours after TRP2 immunization, vs saline) is given as “significantly reduced the immunization response”. Further, in the series on B6 mouse canities model (saline control 15% by 15 weeks of age, p<0.0125 Log Rank), the canities development result was “completely blocked”. Besides, in the series with B6 mouse canities model (saline control 17.7%, p=0.0423), the “aging associated weight gain” value is recorded as 14.2%. The repigmentation entry with vitiligo patches (0.01% maresin 1 in ethanol twice daily, by the end of three months) is reported as “significant repigmentation”. In the series with vitiligo patches (0.01% maresin 1 in ethanol twice daily, three months, 1.0×0.8 cm macule right 4th metacarpal head), the “decrease of lesion area, third lesion” value was determined as 11.1%. The “decrease of lesion area, second lesion” value with vitiligo patches (0.01% maresin 1 in ethanol twice daily, three months, 1.3×1.0 cm patch right third metacarpal head) came to 10.5%. Moreover, in the series with vitiligo patches (0.01% maresin 1 in ethanol twice daily, three months, 1.5×1.2 cm patch mid right abdomen), the “decrease of lesion area, first lesion” value worked out at 13.6%. Besides, the “adverse events such as irritation, itchiness or redness” value in the series on vitiligo patches (0.01% maresin 1 in ethanol, topical twice daily) is “did no notice any adverse events”. Besides, the “decrease of the areas of the three depigmented lesions (overall)” value in the series with vitiligo patches (ethanol solution containing 0.01% maresin 1 twice daily, three months) is 11.7%.

As for `CC/C=C\C/C=C\C[C@H](O)[C@H](O)/C=C/C=C/C=C\C/C=C\CCC(=O)O` [maresin 2, 13R,14S-dihydroxy-4Z,7Z,9E,11E,16Z,19Z-docosahexaenoic acid], the “ability to protect melanocytes” value in series [1] (setting [3]) is “show ability to protect melanocytes”.

In the case of `CC/C=C\C[C@H](O)\C=C/C=C/C=C/[C@H](O)C/C=C\C/C=C\CCC(=O)O` [protectin D1, 10R,17S-dihydroxy-4Z,7Z,11E,13E,15Z,19Z-docosahexaenoic acid], the “ability to protect melanocytes” value in series [1] (setting [3]) is listed as “show ability to protect melanocytes”.

Take `CC/C=C\C[C@H](O)[C@H](O)/C=C/C=C/C=C\C=C\[C@@H](O)C/C=C\CCC(=O)O` [resolvin D2, 7S,16R,17S-trihydroxy-4Z,8E,10Z,12E,14E,19Z-docosahexaenoic acid]: in series [1] (setting [3]), the “ability to protect melanocytes” value is reported as “show ability to protect melanocytes”.

Consider `CC[C@@H](O)/C=C/C=C\C[C@@H](O)/C=C/C=C/C=C\[C@@H](O)CCCC(=O)O` [resolvin E1, 5S,12R,18R-trihydroxy-6Z,8E,10E,14Z,16E-eicosapentaenoic acid], for which the “ability to protect melanocytes” value in series [1] (setting [3]) is reported as “show ability to protect melanocytes”.

Consider “mometasone fumarate [reference compound]”, for which, in the series on vitiligo patches, the “change in the size of the white areas” value is given as “did not notice any change”.
